Patent US20050032145A1, “Methods for measuring activity of glutamine:fructose 6-phosphate amidotransferase and activity of inhibitors thereof” (priority 2002, published 2005)

What was measured:
Assay type in all cases: biochemical
GFAT-alpha = biological target: T1, GFAT-alpha (Homo sapiens, UniProt Q06210); assay: GFAT inhibition, microtiter plate glucosamine 6-phosphate assay (GFAT-alpha); details: enzyme expressed in SF9 insect cells; 60 minutes at 37° C.; OD 585 nm; read-out: IC50 (concentration inhibiting 50% of maximum stimulation), GFAT-alpha
T1 construct: made in house; host or cells: SF9 insect cells (sonicated, centrifuged cell extract)
Method: (§1) For measurement of […], the GFAT enzyme reaction and analysis of the product are preferably carried out directly in a microtiter plate. The preferred reaction volume of 100 μl consists of the substrates glutamine (10 mM) and fructose 6-phosphate (10 mM), phosphate buffered saline (PBS) pH 7.4, ethylenediaminetetraacetic acid (EDTA) (5 mM), dithiothreitol (DTT) (1 mM), and the GFAT enzyme preparation or tissue extract (0.25-50 μl). The incubation mixture is added to the plate, the plate sealed, and placed floating on a 37° C. water bath for 1 hour. Additional incubation mixture is kept on ice to add to standard and control samples. After incubation, non-incubated control and glucosamine 6-phosphate standards of 2.5 to 30 nmoles along with the cold incubator mixture are added to the appropriate wells in the plate. The glucosamine 6-phosphate produced in the incubation mixtures is acetylated by first adding acetic anhydride 1.5% in acetone (10 μl), followed by potassium tetraborate 200 mM (50 μl). The plate is sealed, shaken for 2 minutes on a microshaker, and placed on an 80° C. water bath for 25 minutes. The plate is cooled by placing it on ice for 5 minutes and then Ehrlich's reagent is added (130 μl) (2 g Ehrlich's reagent+0.3 ml water+2.2 ml concentrated hydrochloric acid+17.4 ml acetic acid which is diluted 1:2 in acetic acid before use). The plate is then placed on a 37° C. water bath for 20 minutes and the OD determined at 500-610 nm, preferably 585 nm.
The reaction mixture is made including enough for standard curve samples and kept on ice. The reaction is started by adding the incubation reagents to the microtiter plate, sealing the plate, and placing the plate in a water bath at 37° C. for 1 hr. Standard curve samples are added to the plate, 2.5 to 30 nmoles/well/10 μl, and the cold mix added to control and standard curve samples. Glucosamine 6-phosphate is acetylated with acetic anhydride 1.5%/acetone 10 μl+potassium tetraborate 200 mM 50 μl, by sealing the plate, shaking for 2 minutes and placing on an 80° C. water bath for 25 minutes, then cooling on ice for 5 minutes. Diluted Ehrlich's reagent 130 μl is added and the plate placed on a 37° C. water bath for 20 minutes. The OD is determined at 585 nm.
Stimulation of GFAT activity. […] For most testing, a 60-minute incubation at 37° C. is carried out in 96 well microtiter plates. To give the best heat transfer the plates are sealed with a Costar plate sealer and floated on a 37° C. water bath. Air bubbles are removed from the bottom of the plate to ensure proper heat transfer to all wells. The 100 μl reaction volume consists of glutamine 10 mM, fructose 6-phosphate 10 mM, PBS 1×, EDTA 5 mM DTT 1 mM, and the enzyme preparation. […]

GFAT-beta [1] = biological target: T2, GFAT-beta (Homo sapiens, UniProt O94808); assay: Substrate Km determination, Lineweaver-Burk plot (GFAT-beta); details: extracts from transfected SF9 insect cells, other substrate at saturating levels
T2 construct: made in house; host or cells: SF9 insect cells (sonicated, centrifuged cell extract)
Method: FIG. 3 illustrates the effect of varying concentrations of the substrates glutamine and fructose 6-phosphate on the enzyme activity of GFAT-alpha and GFAT-beta. FIG. 3A is a graph illustrating incubation with 10 μl glutamine 200 mM+10 μl fructose 6-phosphate 3.125, 6.25, 12.5, 25, 50, 100, and 200 mM. FIG. 3B is a graph illustrating incubation with 10 μl fructose 6-phosphate 200 mM+10 μl glutamine 3.125, 6.25, 12.5, 25, 50, 100, and 200 mM. 10 μl of GFAT-alpha and 5 μl of GFAT-beta extracts from transfected SF9 insect cells are incubated with 1) 10 μl glutamine 200 mM+10 μl fructose 6-phosphate 3.125, 6.25, 12.5, 25, 50, 100, and 200 mM, and 2) 10 μl fructose 6-phosphate 200 mM+10 μl glutamine 3.125, 6.25, 12.5, 25, 50, 100, and 200 mM in an incubation media containing 10 μl PBS 10×, 10 μl EDTA 50 mM, 10 μl, DTT 10 mM and water to 100 μl. The plate is sealed with a Costar plate sealer and incubated for 60 minutes at 37° C. by floating on a water bath. Additional incubation mixture is kept on ice to add to standard and control samples. […] After a 20-minute incubation at 37° C., the OD is determined for each well at 585 nm. […]
FIG. 3C is a table illustrating the Km values of the substrates for the GFAT-alpha and GFAT-beta enzymes calculated from the data generated in FIGS. 3A and 3B. […]

GFAT-beta [2] = biological target: T2, GFAT-beta; assay: GFAT inhibition, microtiter plate glucosamine 6-phosphate assay (GFAT-beta)
Method: as §1, with “The plate is cooled by placing it on ice for 5 minutes and then Ehrlich's reagent is added (130 μl) (2 g Ehrlich's reagent+0.3 ml water+2.2 ml concentrated hydrochloric acid+17.4 ml acetic acid which is diluted 1:2 in acetic acid before use).” left out
The reaction mixture is made including enough for standard curve samples and kept on ice. […] The OD is determined at 585 nm. […]

T2 sequence (O94808 whole entry): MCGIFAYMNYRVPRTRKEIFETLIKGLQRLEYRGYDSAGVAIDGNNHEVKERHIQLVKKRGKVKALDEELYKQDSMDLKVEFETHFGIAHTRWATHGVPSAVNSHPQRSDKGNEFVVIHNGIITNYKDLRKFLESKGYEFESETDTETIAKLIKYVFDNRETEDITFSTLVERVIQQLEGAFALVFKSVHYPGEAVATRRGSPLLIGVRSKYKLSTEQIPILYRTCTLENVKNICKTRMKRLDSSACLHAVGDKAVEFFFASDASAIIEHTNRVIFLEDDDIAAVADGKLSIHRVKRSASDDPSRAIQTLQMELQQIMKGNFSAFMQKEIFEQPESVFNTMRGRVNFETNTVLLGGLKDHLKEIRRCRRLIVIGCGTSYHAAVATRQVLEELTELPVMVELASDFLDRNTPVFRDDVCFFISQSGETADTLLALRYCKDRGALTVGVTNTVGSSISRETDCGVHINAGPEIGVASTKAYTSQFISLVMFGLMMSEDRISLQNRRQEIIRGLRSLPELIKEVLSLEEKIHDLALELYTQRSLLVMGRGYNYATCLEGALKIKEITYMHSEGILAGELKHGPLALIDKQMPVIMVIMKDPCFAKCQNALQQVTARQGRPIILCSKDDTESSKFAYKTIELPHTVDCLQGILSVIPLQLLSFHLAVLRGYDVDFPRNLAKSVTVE
T1 sequence (Q06210 1-681 isoform Q06210-2 I57T): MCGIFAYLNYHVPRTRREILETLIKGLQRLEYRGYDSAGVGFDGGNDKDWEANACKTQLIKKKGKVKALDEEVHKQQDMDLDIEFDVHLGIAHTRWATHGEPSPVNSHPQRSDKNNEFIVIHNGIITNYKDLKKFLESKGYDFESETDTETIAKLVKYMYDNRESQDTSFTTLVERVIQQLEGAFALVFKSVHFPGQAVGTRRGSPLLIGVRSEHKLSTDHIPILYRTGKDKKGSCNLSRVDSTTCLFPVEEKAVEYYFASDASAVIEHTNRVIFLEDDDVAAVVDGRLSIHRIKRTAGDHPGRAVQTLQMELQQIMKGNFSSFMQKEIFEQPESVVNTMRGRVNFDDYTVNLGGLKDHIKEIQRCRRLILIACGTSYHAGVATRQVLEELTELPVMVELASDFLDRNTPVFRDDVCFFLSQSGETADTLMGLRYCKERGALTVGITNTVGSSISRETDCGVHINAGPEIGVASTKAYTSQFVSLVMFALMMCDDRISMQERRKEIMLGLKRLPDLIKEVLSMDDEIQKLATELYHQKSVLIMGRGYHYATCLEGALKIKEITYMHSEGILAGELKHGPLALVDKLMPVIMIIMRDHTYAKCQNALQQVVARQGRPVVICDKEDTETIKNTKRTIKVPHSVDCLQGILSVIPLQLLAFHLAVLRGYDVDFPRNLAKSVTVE

Row | Compound | Km (GFAT-beta [1]) | IC50 (GFAT-alpha) | further results
1 | [N-]=[N+]=CC(=O)CC[C@H](N)C(=O)O [DON, 6-diazo-5-oxo-L-norleucine] |  | 18 µM | 
2 | COC(=O)/C=C/C(=O)NC[C@H](N)C(=O)O [FMDP, N3-(-4-methoxyfumaroyl)-L-2,3-diaminopropanoic acid] |  | 4 µM | 
3 | N[C@@H](CNC(=O)CBr)C(=O)O [N3-(bromoacetyl)-L-2,3-diaminopropanoic acid] |  | 0.38 µM | 
4 | uridine-diphosphate-N-acetylglucosamine [UDP-N-acetylglucosamine] |  | 8 µM | IC50 (GFAT-beta [2]; enzyme expressed in SF9 insect cells, 60 minutes at 37° C., OD 585 nm, read-out: IC50 (concentration inhibiting 50% of maximum stimulation), GFAT-beta): 100 µM; times as much required to inhibit GFAT-beta compared with GFAT-alpha (GFAT-beta [2]; ratio of IC50 GFAT-beta to GFAT-alpha): more than 12 times

Continued, in another order:

Row | Km (GFAT-beta [1]) | Compound | IC50 (GFAT-alpha) | further results
5 | 6.8 mM | O=C(CO)[C@@H](O)[C@H](O)[C@H](O)COP(=O)(O)O [fructose 6-phosphate] |  | 
6 | 1.99 mM | NC(=O)CC[C@H](N)C(=O)O [glutamine] |  | 
